pIC50: −log10 of the molar value. Entries after “also recorded” stand apart in the source; their conditions may differ. In the oligonucleotide strings, read from the 5' end, every base follows the letter of its sugar. An asterisk marks phosphorothioate; unmarked linkages are phosphodiester. Other units and linkages are bracketed, terminal groups are in braces. A string of capitals states the bases alone. d = 2'-deoxy (DNA)
Legend:
[1] = test system: p210^bcr-abl kinase; test: Immunoprecipitation kinase assay of p210bcr-abl (autophosphorylation), ODN added to kinase reaction; assay type: biochemical, human; settings: for inhibition of p210^bcr-abl kinase activity in vitro (in words): ODN at 1 μM added to the immunoprecipitated enzyme; for Percent Remaining Activity of p210^bcr-abl kinase relative to control: ODN 1 μM, phosphorothioate capped, mean ± SE of three experiments
Description: The p210^bcr-abl kinase, src kinase and cdc-2 kinase were immunoprecipitated from K562 cells. The p145^abl kinase was immunoprecipitated from PC3M cells, PDGF receptor kinase from 3T3 cells, and EGF receptor kinase from A431 cells. MAP kinase was utilized as a pure protein and lck kinase was immunoprecipitated from peripheral blood lymphocytes of a normal volunteer.
Cells were washed in phosphate buffered saline (PBS) and 0.5-5×10^6 cells were solubilized in 1 ml of the specified cell lysis buffers. Unless otherwise stated, all cell lysis buffers contained the following protease inhibitors: 20 μg/ml leupeptin, 1 μg/ml aprotinin, and 1 mM phenylmethylsulfonylfluroide. For p210^bcr-abl and […] immunoprecipitation, cells were lysed with ABL lysis buffer (25 mM imidazole, pH 7.2, 0.5% NP40, 50 mM NaCl, 1 mM Na3 VO4) and lysates were clarified at 14,000 g. 4° C. for 30 minutes. Cell lysis for all other proteins was performed according to the references describing the various immunoprecipitation kinase assays.
(§1) Immunoprecipitation kinase assays of p210^bcr-abl p145^abl were performed as described, with modifications (15). Briefly, for p210^bcr-abl, 1 μg of anti-bcr antibody (clone 7C6, Oncogene Science, Uniondale, N.Y.) was added to lysates prepared from 0.5-1×10^6 K562 cells. For p145^abl, 1 μg of anti-c-abl antibody (clone 24-21), which binds to the C-terminal domain of p145^abl, was added to lysates prepared from 5×10^6 PC3M cells. After incubating 1 hour at 4° C., complexes were precipitated by incubating with protein A-Sepharose coated with rabbit anti-mouse immunoglobulin (Cappel Research Products, Durham, N.C.) for 30 minutes. The complexes were then washed as follows: ABL lysis buffer×2, PBS×1, and ABL assay buffer×1 (24 mM imidazole, pH 7.2, 1 mg/ml bovine serum albumin, and 10 mM MnCl). For p145^abl assays ABL assay buffer contained 20 mM MnCl. To access the activity of p210^bcr-abl on substrate phosphorylation, acid inactivated enolase (Sigma Chemical Co., St. Louis, Mo.) was added as described (15).
(§2) ODNs were added to kinase reaction buffers not more than 5 minutes prior to the addition of ATP. Reactions were initiated by the addition of [γ^-32 P] ATP (3000 Ci/mmole; Amersham Corp., Arlington Heights, Ill.) and quenched by the addition of 5× gel loading buffer and heating to 95° C. Kinase reactions were run for 1-10 minutes at room temperature, except for EGFR, p145^abl, and MAP kinase, which were run at 30° C. The products were then electrophoresed on SDS-polyacrylamide gels: 7% for p210^bcr-abl, EGFR, and PDGFR, 8% for p145^abl, 10% for src, lck, and cdc-2 kinase, and 12% for MAP kinase. Gels were dried and reaction products were visualized by direct autoradiography at -70° C. with Kodak X-OMAT AR film. To determine the inhibitory concentration 50, i.e., the concentration required to inhibit enzyme activity by 50% (IC50) and Ki values, gel slices containing the band of interest were excised and analyzed by Cerenkov counting.

[2] = test system: cellular phosphotyrosine content of K562 cells; test: Western analysis of total cellular phosphotyrosine content after electroporation of K562 cells; assay type: cell-based, human; settings: K562 cells electroporated with 100 μM ODN, one hour later
Description: One hundred micrograms of protein from cell lysates were separated on a 7% SDS polyacrylamide gel. Transfer was performed overnight at 50 volts, 4° C., in a 0.2 M glycine, 25 mM Tris, pH 8.3, 0.15% SDS, 20% methanol buffer, onto […] nitrocellulose (Schleicher and Schuell Inc.). For cellular phosphotyrosine blots, Western probing was performed as described previously, with modifications (SARTOR, et al, 1991). Briefly, membranes were blocked for 2 hours with 5% albumin in TTBS (20 mM Tris HCL, pH 7.6; 0.05% Tween 20; 0.9% sodium chloride), probed for 1 hour with antiphosphotyrosine antibody (Upstate Biotechnology Inc., Lake Placid, N.Y.) diluted 1:500 in TTBS, followed by rabbit anti-mouse antibody (Cappel Research Products) and then [^125 I] protein A Sepharose (Amersham Corp., Arlington Heights, Ill.). Membranes were exposed to Kodak X-OMAT AR film overnight at -70° C. with intensifying screens.
Electroporation was performed as described (40). Briefly, 1-5×10^6 cells in 1 ml of RPMI 1640 with 10% fetal calf serum were placed into 0.4 cm gap electroporation chambers and electroporated with a Cell-Porator Electroporation System 1 (all from GIBCO BRL, Grand Island, N.Y.) at 800 microfarrads, 300 volts, at room temperature. Cells were then incubated at 37° C. for 1 hour before manipulation.
In K562 cells p210^bcr-abl is a major kinase responsible for protein tyrosine phosphorylation (38, 39). Changes in enzyme activity are therefore reflected by changes in cellular phosphotyrosine content.

[3] = test system: p210^bcr-abl kinase in K562 cells; test: Immunoprecipitation kinase assay of p210bcr-abl from ODN treated K562 cells; assay type: cell-based, human; settings: K562 cells incubated 3 days with 50 μM ODN, washed
Description: as §1, §2
The effects of ODN1 on a cellular system were assessed. […] After 3 days, cells were washed and p210^bcr-abl kinase activity was measured. […] Neither cellular p210^bcr-abl protein content nor cell growth was affected by ODN treatment (data not shown).

[4] = test system: K562 cells; test: K562 colony formation in soft agar; assay type: cell-based, human; settings: 50 μM ODN, two weeks, not electroporated
Description: K562, NIH 3T3, and A431 cells were purchased from the American Type Culture Collection (Rockville, Md.). PC3M prostate cancer cells were a generous gift from J. Trepel (National Institutes of Health, Bethesda, Md.). K562 and PC3M cells were cultured in RPMI 1640 with 10% heat-inactivated fetal bovine serum (FBS; GIBCO BRL, Grand Island, N.Y.) while NIH 3T3 and A431 cells were cultured in Dulbecco's modified Eagle's medium (Biofluids, Rockville, Md.) with 10% heat inactivated FBS. Cells were maintained at 37° C., 6% carbon dioxide with biweekly media changes. For soft agar cloning, cells were suspended in 0.3% low melting temperature agarose (SeaPlaque FMC BioProducts, Rockland, Me.) in RPMI 1640 with 10% total calf serum and maintained as above.
To evaluate the effects of these various ODNs of K562 cell growth, both growth in liquid culture and growth in soft agar were examined. […] Cells were electroporated in the presence of 50 μM ODN and kept in liquid culture. For soft agar cloning experiments, cells were not electroporated, but were grown in the presence of 50 μM ODN for two weeks. Liquid cultures were replenished with fresh medium containing 50 μM ODN. Two weeks following incubation in liquid culture, the number of trypan blue-excluding cells was determined. No effect on cell growth in liquid culture could be observed with any ODN tested (data not shown).

[5] = test system: MAP kinase; test: inhibition; settings: PS, two linkages at each of 5' and 3' ends, rest phosphodiester; 30 C
[6] = test system: PDGF receptor (PDGFR); test: inhibition; settings: PS, two linkages at each of 5' and 3' ends, rest phosphodiester; autophosphorylation
[7] = listed as BCR-AS all-phosphorothioate

With “5'-GTCCACCATGGCGCGGCCGGC-3' [ODN1 all phosphorothioate] (DNA dG*dT*dC*dC*dA*dC*dC*dA*dT*dG*dG*dC*dG*dC*dG*dG*dC*dC*dG*dG*dC)” the “inhibition of p210^bcr-abl kinase activity in vitro (in words)” value (from here on “inhibition”) [1] was “most potent inhibitor”, the “inhibition” value [1, 7] was “most effective inhibitor” and the “total cellular protein phosphotyrosine content” value [2, 7] was “no effect”.
“5' GGCGGCGGCGGCGGCGGCGGC 3' (chemistry not given here) [SEQ ID NO.: 11, 21mer consisting of seven tandem GGC repeats]” was tested, and the “inhibition” value [1] was “inhibitory activity equivalent to ODN1”.
For GGCG, the “inhibition” value [1] was “no inhibitory activity”.
In the case of “5'-GTCCACCATGGCGCGGCCGGC-3' [ODN1 all phosphodiester] (unmodified DNA)”, the “inhibition” value [1] was “intermediate potencies” and the “total cellular protein phosphotyrosine content” value ([2]; listed as BCR-AS phosphodiester) was “equally effective”.
In the case of “5'-CGCTGAAGTTTTGAACTCTGC-3' (chemistry not given here) [B/A-AS, spans the bcr-abl fusion region, complementary to 11 bcr and 10 abl nucleotides of the mature fusion transcript]”, the “p210^bcr-abl kinase activity of ODN treated K562 cells” value [3] was “inhibited kinase activity”, the “total cellular protein phosphotyrosine content” value [2] was “less marked effects; also recorded: no effect” and the “ability to form colonies in soft agar” value [4] was “failed to effect the cloning ability of the cells”.
“5' GGCGGCCGCGCTGCAACCCGT 3' (chemistry not given here) [ODN1A, scrambled version of ODN1]” was tested, and the “Percent Remaining Activity of p210^bcr-abl kinase relative to control” value [1] was 42 ± 6.9%.
With “5' CCGACCACTTCCGAGTACTAG-3' (chemistry not given here) [ABL-1bSCR, the scrambled version of ABL-1bAS]” the “total cellular protein phosphotyrosine content” value [2] was “less marked effects”.
For “5' GGCCGTGCAGCTCGCACCGGC 3' (chemistry not given here) [ODN1C, scrambled version of ODN1]”, the “Percent Remaining Activity of p210^bcr-abl kinase relative to control” value [1] was 74 ± 15%.
For “GTCCACCATGGCGCGGCCGGC [ODN1 (BCR-AS), phosphorothioate capped]”, the pIC50 [5] was < 4.00 and the pIC50 [6] was 5.36.
With “5'-GTCCACCATGGCGCGGCCGGC-3' [ODN1 2'-methoxy modified sugars] (2'-O-methyl modified sugars, pattern not given here)” the “inhibition” value [1] was “least effective”.
In the case of “5' TGCCCAACGTCGCGCCGGCGG 3' (chemistry not given here) [ODN1B, scrambled version of ODN1]”, the “Percent Remaining Activity of p210^bcr-abl kinase relative to control” value [1] was 59 ± 6.4%.
For “5'-TGTACGTCCGGCTTACTAGTA-3' (chemistry not given here) [B/A-SCR, scrambled version of the B/A ODN]”, the “p210^bcr-abl kinase activity of ODN treated K562 cells” value [3] was “did”, the “total cellular protein phosphotyrosine content” value [2] was “effectively lowered protein phosphotyrosine content; also recorded: reduced protein phosphotyrosine content” and the “ability to form colonies in soft agar” value [4] was “inhibited the ability of these cells to form colonies in soft agar”.
With “5' TCCGCGAACCCGGTGCGCCGG 3' (chemistry not given here) [ODN1D, scrambled version of ODN1 / BCR-AS]” the “Percent Remaining Activity of p210^bcr-abl kinase relative to control” value [1] was 79 ± 79%, the “inhibition” value [1] was “does not inhibit kinase activity” and the “p210^bcr-abl kinase activity of ODN treated K562 cells” value [3] was “did not inhibit kinase activity”. For the same substance, the “total cellular protein phosphotyrosine content” value ([2]; listed as BCR-SCR) was “effectively lowered protein phosphotyrosine content; also recorded: reduced protein phosphotyrosine content” and the “ability to form colonies in soft agar” value [4] was “inhibited the ability of these cells to form colonies in soft agar”.
With “5'-TCCAGGCTGCTGCCCCATAAA-3' (chemistry not given here) [ABL-1bAS, complementary to nucleotides -3 to +18 of the abl lb mRNA]” the “total cellular protein phosphotyrosine content” value [2] was “less marked effects”.
